According to US20150125515A1, “NOVEL SP-B & SP-C PEPTIDES, SYNTHETIC LUNG SURFACTANTS, AND USE THEREOF” (UNIVERSITY OF ROCHESTER, priority 2012, published 2015):

Key:
[1] = Pulsating bubble surfactometer, minimum surface tension; type: physicochemical; conditions: Table 8, 37° C, 20 cycles/min, 50% area compression, 2.5 mg/ml phospholipid, Means ± SEM, N = 4
Procedure: (§1) Surface activity of synthetic peptide/lipid surfactant compositions was assessed by either or both of the following methods: (1) measurement of the adsorption of surfactant compositions to the air-water interface as a function of time, and (2) measurement of overall dynamic surface activity on a pulsating bubble surfactometer (general methodological details of these two experimental techniques are described by Notter, Lung Surfactants: Basic Science and Clinical Applications, Marcel Dekker, Inc, New York (2000), which is hereby incorporated by reference in its entirety).
In pulsating bubble studies, surface tension at minimum bubble radius (minimum surface tension) was determined as a function of time during pulsation on a bubble surfactometer (General Transco, Largo, Fla.) (37° C., 20 cycles/min, 50% area compression). A tiny air bubble was formed and pulsated between maximum and minimum radii of 0.55 and 0.4 mm, respectively, and the pressure drop across the air-water interface of the bubble was measured with a precision transducer. Minimum surface tension was calculated from the measured pressure drop at minimum radius (0.4 mm) from the Laplace equation (Enhorning, “Pulsating Bubble Technique for Evaluation of Pulmonary Surfactant,” J Appl Physiol 43:198-203 (1977); Hall et al., “Approximations in the Measurement of Surface Tension with the Oscillating Bubble Surfactometer,” J Appl Physiol 75:468-477 (1993), each of which is hereby incorporated by reference in its entirety). Measurements of overall surface activity on this instrument reflect the combined effects of adsorption and dynamic film compression at a cycling rate (20 cycles/min), temperature (37° C.), and area compression (50% compression from maximum to minimum area) relevant for the mammalian lungs in vivo (Notter, Lung Surfactants: Basic Science and Clinical Applications, Marcel Dekker, Inc, New York (2000); Enhorning, “Pulsating Bubble Technique for Evaluation of Pulmonary Surfactant,” J Appl Physiol 43:198-203 (1977); Notter et al., “Pulmonary Surfactant: Physical Chemistry, Physiology and Replacement,” Rev Chem Eng 13:1-118 (1997), each of which is hereby incorporated by reference in its entirety).

[2] = Adsorption of surfactant compositions to the air-water interface (surface pressure vs time, Wilhelmy method); type: physicochemical; conditions: Means ± SEM
Procedure: as §1
In adsorption studies, a given surfactant mixture was injected at time zero beneath the surface of a stirred surfactant-free subphase, and surface pressure (defined as surface tension lowering below that of the pure subphase) was measured as a function of time from the force on a hanging platinum slide (“Wilhelmy” method). By definition, higher surface pressure corresponds to lower surface tension (Notter, Lung Surfactants: Basic Science and Clinical Applications, Marcel Dekker, Inc, New York (2000)).

[3] = tested on: ventilated rabbits with ARDS induced by saline lavage; assay: Saline-lavage ventilated rabbit model of ARDS: arterial oxygenation and dynamic compliance; type: in vivo, New Zealand white rabbits; conditions: intratracheal 100 mg/kg
Procedure: Saline lavage produces surfactant deficiency, alveolar collapse and lung edema in ventilated rats and rabbits, and is a useful experimental model for human ARDS. A saline-lavage rabbit model for lung injury was thus used to compare synthetic surfactants, with lipids only as negative control. Restoration of lung function was assessed by serial monitoring of gas exchange and lung mechanics. Physiological activity results for selected synthetic SP-B peptides are shown below, and physiological activity results for selected synthetic SP-C peptides are included in following Example 8.
Animal experiments were performed following established protocols approved by the Animal Care and Use Committee at the Los Angeles Biomedical Research Institute at Harbor-UCLA Medical Center. […] In brief, experimental animals were commercially available young adult male New Zealand white rabbits whose respiratory function was followed during mechanical ventilation by measurements of serial arterial blood gases and pulmonary compliance over the first 2 hours after a standardized saline lavage protocol. For this timeframe of study, the model reflected a relatively pure state of surfactant insufficiency in animals with mature lungs. Saline lavage administration was performed after induction of anesthesia, insertion of a venous line in a marginal ear vein, endotracheal intubation and initiation of mechanical ventilation, muscle paralysis, and insertion of a carotid arterial line. Heart rate, arterial blood pressure and rectal temperature were measured continuously. After stabilization on the ventilator, saline lavage was performed with repeated intratracheal instillation and removal of 30 mL of normal saline until the PaO2 dropped below 100 mm Hg (average 3 lavages). Maintenance fluid was provided by a continuous infusion of Lactated Ringer's solution at a rate of 10 ml/kg/h. Edema fluid appearing in the trachea was removed by suctioning. When the PaO2 was stable at less than 100 mm Hg in saline lavaged animals, an experimental or control surfactant mixture was instilled into the trachea at a dose of 100 mg/kg body weight and a concentration of 35 mg/mL. The rabbits were ventilated using a Harvard volume-controlled animal ventilator (tidal volume 7.5 ml/kg, a positive end-expiratory pressure [PEEP] of 3 cm H2O, an inspiratory/expiratory ratio of 1:2, 100% oxygen, and a respiratory rate to maintain a PaCO2 at ˜40 mm Hg). Airway flow and pressures and tidal volume were monitored continuously with a pneumotachograph connected to the endotracheal tube and a pneumotach system. Arterial pH and blood gases were done every 15 minutes. Dynamic lung compliance was calculated by dividing tidal volume/kg body weight by changes in airway pressure (peak inspiratory pressure minus positive end-expiratory pressure) (mL/kg/cmH2O). Animals were sacrificed 2 h after surfactant administration with an overdose of pentobarbital. End-points are pulmonary gas exchange (arterial pH, PaCO2 and PaO2) and pulmonary mechanics (dynamic compliance, postmortem pressure-volume curves). Each treatment group consisted of n=4-9 animals.
The in vivo pulmonary activity of reduced MB DATK and SMB DATK was investigated in comparison with oxidized SMB and MB (positive controls) and lipids alone (negative control) over 120 min, following intratracheal instillation of these surfactants into ventilated rabbits with ARDS induced by saline lavage. Oxidized SMB and MB were used as positive controls, because these SP-B mimics previously indicated high in vivo surfactant activities equal to those of native, full-length porcine SP-B in ventilated rats with ARDS (Walther et al., “Critical Structural and Functional Roles for the N-terminal Insertion Sequence in Surfactant Protein B Analogs,” PLoS One 5:e8672 (2010), which is hereby incorporated by reference in its entirety). […]

[4] = synthetic peptide; Walther et al. 2000; cited from earlier work
[5] = storage in organic solvent or in surfactant lipids for 4-6 weeks; Walther et al. 2007; cited from earlier work
[6] = Table 7, 0.0625 mg phospholipid/ml of subphase, normal saline pH 7.0, 37 ± 0.5° C, N = 4
[7] = Table 9, phospholipase-resistant lipids, 0.0625 mg phospholipid/ml, n = 4
[8] = Table 13, SP-B plus SP-C peptide (1.5%:1.5%) with resistant lipids or glycerophospholipids, 0.0625 mg phospholipid/ml, n = 4

Molecule: CCCCCCCCCCCCCCCCOCC(COP(=O)(O)CCC[N+](C)(C)C)OCCCCCCCCCCCCCCCC (racemic) [DEPN-8, [(±)-trimethyl(3-phosphonopropyl)ammonium, mono(2,3-bis(hexadecyloxy)propyl ester]]
- Minimum Surface Tension at 0.25 min of bubble pulsation ([1]; 0.25 min): 31.2 ± 2.0 mN/m
- Minimum Surface Tension at 0.5 min of bubble pulsation ([1]; 0.5 min): 27.1 ± 1.8 mN/m
- Minimum Surface Tension at 1 min of bubble pulsation ([1]; 1 min): 21.2 ± 1.5 mN/m
- Minimum Surface Tension at 2 min of bubble pulsation ([1]; 2 min): 14.6 ± 1.2 mN/m
- Minimum Surface Tension at 5 min of bubble pulsation ([1]; 5 min): 7.8 ± 1.7 mN/m
- Minimum Surface Tension at 10 min of bubble pulsation ([1]; 10 min): 1.5 ± 1.0 mN/m
- Minimum Surface Tension at 15 min of bubble pulsation ([1]; 15 min): <1 mN/m
- Adsorption Surface Pressure at time 0 min [2, 6]: 0 ± 0.0 mN/m
- Adsorption Surface Pressure at time 1 min [2, 6]: 12.9 ± 2.9 mN/m
- Adsorption Surface Pressure at time 2 min [2, 6]: 16.0 ± 1.6 mN/m
- Adsorption Surface Pressure at time 5 min [2, 6]: 17.8 ± 1.7 mN/m
- Adsorption Surface Pressure at time 10 min [2, 6]: 18.0 ± 1.7 mN/m
- Adsorption Surface Pressure at time 15 min [2, 6]: 18.2 ± 1.7 mN/m
- Adsorption Surface Pressure at time 0 min [2, 7]: 0.0 ± 0.0 mN/m
- Adsorption Surface Pressure at time 1 min [2, 7]: 12.9 ± 2.9 mN/m
- Adsorption Surface Pressure at time 2 min [2, 7]: 16.0 ± 1.6 mN/m
- Adsorption Surface Pressure at time 5 min [2, 7]: 17.8 ± 1.7 mN/m
- Adsorption Surface Pressure at time 10 min [2, 7]: 18.0 ± 1.7 mN/m
- Adsorption Surface Pressure at time 15 min [2, 7]: 18.2 ± 1.7 mN/m
- Adsorption Surface Pressure at time 0 min [2, 8]: 0.0 ± 0.0 mN/m
- Adsorption Surface Pressure at time 1 min [2, 8]: 12.9 ± 2.9 mN/m
- Adsorption Surface Pressure at time 2 min [2, 8]: 16.0 ± 1.6 mN/m
- Adsorption Surface Pressure at time 5 min [2, 8]: 17.8 ± 1.7 mN/m
- Adsorption Surface Pressure at time 10 min [2, 8]: 18.0 ± 1.7 mN/m
- Adsorption Surface Pressure at time 15 min [2, 8]: 18.2 ± 1.7 mN/m

Molecule: GIPFFPVHLKRLLIVVVVVVLIVVVIVGALLMGL [SP-Cff]
- Oxygenation and lung compliance after instillation (FIG. 2) ([3]; SP-C mimics 3.0% by weight in 5:3:2 (weight ratio) DPPC:POPC:POPG, PBS pH 7.4, 35 mg/mL): much less so
- relative order of pulmonary activity in terms of oxygenation and lung compliance ([3]; SP-C mimics 3.0% by weight in 5:3:2 DPPC:POPC:POPG): SP-C33˜SP-Css ion-lock>SP-Cff>Lipids alone
- solubility in chloroform-methanol [4]: low solubility
- conformational stability upon storage (FTIR) [5]: self-associates to form β-sheet aggregates
